Where two headings read alike, the source gives them in different places.
Experiments:
[1] = system: Ba/F3-KDR-transfected cells in the presence of 10 ng/ml murine IL3; assay: Ba/F3-KDR (plus IL3) cellular proliferation counterscreen, Alamar Blue; format: cell-based; settings: Mus musculus; plus 10 ng/ml murine IL3; read-out: BAF3-KDR (PLUS IL3) 384 well pIC50 (converted)
Experimental: Ba/F3-KDR (Minus IL3 or Plus IL3) (Cellular Proliferation Assay)
[…] Cells were put in an incubator at 37° C. and 5% CO2. After 24 hours, 10 μl of Alamar Blue solution (0.5 mM K3Fe(CN)6, 0.5 mM KaFe(CN)6, 0.15 mM Resazurin and 100 mM Phosphate Buffer) was added to the wells, incubated for 4 hours at 37° C. and 5% CO2 before RFU's (Relative Fluorescence Units) (ex. 540 nm., em. 590 nm.) were measured in a flurorescence plate reader.
(§1) As a counterscreen the same experiment was performed in the presence of 10 ng/ml murine IL3.
(§2) In a 96 well plate, 180 μl cell culture medium (phenol red free RPMI-1640, 10% FBS, 2 mM L-Glutamine and 50 μg/ml Gentamycin) containing 10000 cells per well of Ba/F3-KDR-transfected cells were pipette and 20 μl of compound dilution in DMSO was added. Cells were put in an incubator at 37° C. and 5% CO2. After 24 hours, 40 μl of Alamar Blue solution (0.5 mM K3Fe(CN)6, 0.5 mM KaFe(CN)6, 0.15 mM Resazurin and 100 mM Phosphate Buffer) was added to the wells, incubated for 4 hours at 37° C. and 5% CO2 RFU's (Relative Fluorescence Units) (ex. 540 nm., em. 590 nm.) were measured in a flurorescence plate reader.

[2] = target: Ba/F3-FGFR4-transfected cells (Homo sapiens, UniProt P22455); assay: Ba/F3-FGFR4 cellular proliferation assay, Alamar Blue; format: cell-based
Sequence of Ba/F3-FGFR4-transfected cells (P22455 whole entry, change not shown): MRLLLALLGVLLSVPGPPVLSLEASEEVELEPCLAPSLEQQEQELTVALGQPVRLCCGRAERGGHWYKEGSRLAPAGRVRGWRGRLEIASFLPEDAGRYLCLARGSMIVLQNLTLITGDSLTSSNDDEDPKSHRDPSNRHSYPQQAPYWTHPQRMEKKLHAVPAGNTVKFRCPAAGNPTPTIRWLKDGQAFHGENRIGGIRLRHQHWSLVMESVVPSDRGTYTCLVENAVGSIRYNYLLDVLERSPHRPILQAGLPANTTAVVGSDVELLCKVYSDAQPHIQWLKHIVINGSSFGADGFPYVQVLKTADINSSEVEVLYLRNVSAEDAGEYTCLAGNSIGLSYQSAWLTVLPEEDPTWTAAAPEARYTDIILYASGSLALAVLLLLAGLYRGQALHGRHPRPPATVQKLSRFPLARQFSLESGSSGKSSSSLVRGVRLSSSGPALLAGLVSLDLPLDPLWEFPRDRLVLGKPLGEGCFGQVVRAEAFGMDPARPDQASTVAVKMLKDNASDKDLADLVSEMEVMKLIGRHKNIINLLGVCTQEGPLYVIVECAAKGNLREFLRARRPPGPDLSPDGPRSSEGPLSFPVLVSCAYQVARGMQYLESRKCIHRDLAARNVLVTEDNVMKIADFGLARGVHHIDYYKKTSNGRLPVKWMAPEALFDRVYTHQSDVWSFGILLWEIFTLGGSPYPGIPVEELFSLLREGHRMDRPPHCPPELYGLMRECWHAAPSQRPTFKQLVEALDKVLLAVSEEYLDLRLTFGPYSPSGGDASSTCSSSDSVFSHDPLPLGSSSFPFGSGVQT
In short: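 Alamar Blue fluorescence (540/590 nm, 4 h development) measured growth of FGFR4-transfected Ba/F3 cells after 24 h compound treatment at 37° C. Cells were seeded at 20000/well in RPMI-1640, 10% FBS.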

FGFR2 (h) = FGFR2 (h) (Homo sapiens, UniProt P21802); assay: FGFR2 (enzymatic assay), TR-FRET; format: biochemical; settings: read-out: FGFR 2 pIC50 (converted)
Sequence of FGFR2 (h) (P21802 22-821): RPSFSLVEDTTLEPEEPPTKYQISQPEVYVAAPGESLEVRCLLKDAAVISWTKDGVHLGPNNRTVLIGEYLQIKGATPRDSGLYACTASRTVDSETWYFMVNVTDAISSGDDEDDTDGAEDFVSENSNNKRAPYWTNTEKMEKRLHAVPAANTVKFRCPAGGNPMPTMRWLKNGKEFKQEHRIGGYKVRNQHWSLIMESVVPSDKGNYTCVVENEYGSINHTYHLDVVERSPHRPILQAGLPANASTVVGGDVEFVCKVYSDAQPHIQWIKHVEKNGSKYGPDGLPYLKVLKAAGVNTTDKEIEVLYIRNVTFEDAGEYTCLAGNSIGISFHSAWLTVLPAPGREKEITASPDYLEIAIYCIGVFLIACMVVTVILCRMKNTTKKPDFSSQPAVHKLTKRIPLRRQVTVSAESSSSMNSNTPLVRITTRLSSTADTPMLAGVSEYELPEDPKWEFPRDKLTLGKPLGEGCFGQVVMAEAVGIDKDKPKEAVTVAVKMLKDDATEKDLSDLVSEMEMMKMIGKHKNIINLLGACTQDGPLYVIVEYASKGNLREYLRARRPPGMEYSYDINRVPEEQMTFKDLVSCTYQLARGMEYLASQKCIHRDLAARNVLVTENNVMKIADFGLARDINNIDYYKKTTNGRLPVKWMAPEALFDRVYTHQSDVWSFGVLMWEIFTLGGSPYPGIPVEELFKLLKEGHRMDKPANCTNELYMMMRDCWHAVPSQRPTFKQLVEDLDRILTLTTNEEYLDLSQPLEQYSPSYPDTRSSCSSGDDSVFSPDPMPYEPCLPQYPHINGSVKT
Experimental: In a final reaction volume of 30 μL, FGFR2 (h) (150 ng/ml) was incubated with 50 mM HEPES pH 7.5, 6 mM MnCl2, 1 mM DTT, 0.1 mM Na3VO4, 0.01% Triton-X-100, 500 nM Btn-Flt3 and 0.4 μM ATP in the presence of compound (1% DMSO final). […] Time-Resolved Fluorescence Resonance Energy Transfer (TR-FRET) signal (ex340 nm. Em 620 nm, em 655 nm) was measured afterwards and results are expressed in (Relative Fluorescence Units).

[3] = system: Ba/F3-FGFR3-transfected cells in the presence of 10 ng/ml murine IL3; assay: Ba/F3-FGFR3 (plus IL3) cellular proliferation counterscreen, Alamar Blue; format: cell-based; settings: Mus musculus
Experimental: Ba/F3-FGFR3 (Minus IL3 or Plus IL3) (Cellular Proliferation Assay)
In a 384 well plate, 100 nl of compound dilution in DMSO was sprayed before adding 50 μl cell culture medium (phenol red free RPMI-1640, 10% FBS, 2 mM L-Glutamine and 50 μg/ml Gentamycin) containing 20000 cells per well of Ba/F3-FGFR3-transfected cells. Cells were put in an incubator at 37° C. and 5% CO2. After 24 hours, 10 μl of Alamar Blue solution (0.5 mM K3Fe(CN)6, 0.5 mM KaFe(CN)6, 0.15 mM Resazurin and 100 mM Phosphate Buffer) was added to the wells, incubated for 4 hours at 37° C. and 5% CO2 before RFU's (Relative Fluorescence Units) (ex. 540 nm., em. 590 nm.) were measured in a flurorescence plate reader.
as §1
as §2, with “well of Ba/F3-FGFR3-transfected cells were” for “well of Ba/F3-KDR-transfected cells were”, “5% CO2 before RFU's (Relative” for “5% CO2 RFU's (Relative”

FGFR1 (h) = FGFR1 (h) (Homo sapiens, UniProt P11362); assay: FGFR1 (enzymatic assay), TR-FRET; format: biochemical; settings: read-out: FGFR 1 pIC50 (converted)
Sequence of FGFR1 (h) (P11362 22-822): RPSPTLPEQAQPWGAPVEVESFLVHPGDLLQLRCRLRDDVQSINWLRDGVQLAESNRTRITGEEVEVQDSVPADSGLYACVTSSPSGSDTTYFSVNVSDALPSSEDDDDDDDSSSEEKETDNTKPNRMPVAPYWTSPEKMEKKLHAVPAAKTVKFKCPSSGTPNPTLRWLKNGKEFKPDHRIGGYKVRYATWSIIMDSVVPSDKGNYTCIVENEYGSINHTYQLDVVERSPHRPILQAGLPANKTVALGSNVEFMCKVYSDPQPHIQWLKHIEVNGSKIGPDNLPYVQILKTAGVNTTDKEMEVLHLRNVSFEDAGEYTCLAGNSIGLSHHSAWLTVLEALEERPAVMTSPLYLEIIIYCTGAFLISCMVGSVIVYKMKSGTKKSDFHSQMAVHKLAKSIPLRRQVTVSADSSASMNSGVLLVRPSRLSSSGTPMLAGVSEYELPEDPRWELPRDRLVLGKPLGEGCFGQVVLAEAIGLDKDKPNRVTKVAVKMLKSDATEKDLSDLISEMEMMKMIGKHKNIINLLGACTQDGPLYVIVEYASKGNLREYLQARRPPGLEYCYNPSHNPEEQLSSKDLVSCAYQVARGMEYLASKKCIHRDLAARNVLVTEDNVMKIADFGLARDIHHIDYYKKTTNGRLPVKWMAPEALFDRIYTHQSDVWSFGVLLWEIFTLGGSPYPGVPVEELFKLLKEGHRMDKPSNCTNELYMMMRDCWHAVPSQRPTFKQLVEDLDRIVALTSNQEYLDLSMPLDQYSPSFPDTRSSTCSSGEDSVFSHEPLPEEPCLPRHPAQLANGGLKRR
Experimental: (§3) In a final reaction volume of 30 μL, FGFR1 (h) (25 ng/ml) was incubated with 50 mM HEPES pH 7.5, 6 mM MnCl2, 1 mM DTT, 0.1 mM Na3VO4, 0.01% Triton-X-100, 500 nM Btn-Flt3 and 5 μM ATP in the presence of compound (1% DMSO final). […] Time-Resolved Fluorescence Resonance Energy Transfer (TR-FRET) signal (ex340 nm. Em 620 nm, em 655 nm) was measured afterwards and results are expressed in RFU (Relative Fluorescence Units).

FGFR3 (h) = FGFR3 (h) (Homo sapiens, UniProt P22607); assay: FGFR3 (enzymatic assay), TR-FRET; format: biochemical; settings: read-out: FGFR 3 pIC50 (converted)
Sequence of FGFR3 (h) (P22607 23-806): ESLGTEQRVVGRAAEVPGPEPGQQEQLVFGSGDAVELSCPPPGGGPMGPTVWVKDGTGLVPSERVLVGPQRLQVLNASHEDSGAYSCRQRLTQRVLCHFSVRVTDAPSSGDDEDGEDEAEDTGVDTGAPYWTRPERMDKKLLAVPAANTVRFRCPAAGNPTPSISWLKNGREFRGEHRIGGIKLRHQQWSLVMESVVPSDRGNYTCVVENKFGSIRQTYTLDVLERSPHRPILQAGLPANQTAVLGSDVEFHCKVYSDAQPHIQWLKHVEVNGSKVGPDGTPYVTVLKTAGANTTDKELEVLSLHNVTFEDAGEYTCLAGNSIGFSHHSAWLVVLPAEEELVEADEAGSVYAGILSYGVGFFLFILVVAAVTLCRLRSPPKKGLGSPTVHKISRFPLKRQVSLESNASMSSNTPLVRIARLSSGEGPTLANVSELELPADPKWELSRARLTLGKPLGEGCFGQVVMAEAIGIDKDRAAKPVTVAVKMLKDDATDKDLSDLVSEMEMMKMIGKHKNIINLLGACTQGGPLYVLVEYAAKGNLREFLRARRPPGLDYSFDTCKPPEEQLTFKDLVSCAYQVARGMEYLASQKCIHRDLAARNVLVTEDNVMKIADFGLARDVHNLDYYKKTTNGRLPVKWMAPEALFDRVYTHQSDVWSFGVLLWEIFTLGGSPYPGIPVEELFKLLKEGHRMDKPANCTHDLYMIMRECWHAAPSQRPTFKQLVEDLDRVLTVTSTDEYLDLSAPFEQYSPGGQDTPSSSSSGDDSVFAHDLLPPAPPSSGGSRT
Experimental: as §3, with “μL, FGFR3” for “μL, FGFR1”, “(h) (40” for “(h) (25”, “and 25” for “and 5”

[4] = plus 10 ng/ml murine IL3, 384 well, read-out: BAF3-FGFR 3 (PLUS IL3) 384 well pIC50 (converted)
[5] = plus IL3, 96 well, read-out: BAF3-FGFR 3 (PLUS IL3) 96 well pIC50 (converted)

BAF3-FGFR4 pIC50 [2]	IC50 (FGFR2 (h))	IC50 (FGFR1 (h))	IC50 (FGFR3 (h))	melting point	Compound	IC50 [1]	IC50 [3, 4]	IC50 [3, 5]
6.0	0.0158 µM	0.00871 µM	0.00646 µM	164 °C	COc1cc(OC)cc(N(CCN2CCOCC2)c2ccc3ncc(-c4ccc(N)nc4)nc3c2)c1 [Compound 169]	> 10 µM	> 10 µM	–
6.6	0.0126 µM	0.00389 µM	0.0049 µM	171 °C	COc1cc(OC)cc(N(CCO)c2ccc3ncc(-c4ccc(N5CCNCC5)nc4)nc3c2)c1 [Compound 165]	> 10 µM	> 10 µM	–
~6.5	0.0813 µM	0.155 µM	0.162 µM	141 °C	COc1cc(OC)cc(N(CC#Cc2ncccc2OC)c2ccc3ncc(-c4cccnc4)nc3c2)c1 [Compound 183]	> 10 µM	> 10 µM	–
6.0	0.0263 µM	0.012 µM	0.01 µM	153 °C	COc1cc(OC)cc(N(CCN2CCOCC2)c2ccc3ncc(-c4ccc(NC(=O)N5CCOCC5)nc4)nc3c2)c1 [Compound 35]	> 10 µM	> 10 µM	–
<5	0.0813 µM	0.0316 µM	0.0295 µM	166 °C	COc1cc(OC)cc(N(CC2CC2)c2ccc3ncc(-c4c[nH]cn4)nc3c2)c1 [Compound 39]	> 10 µM	> 10 µM	> 10 µM
5.7	0.0339 µM	0.0257 µM	0.0339 µM	167 °C	COc1cc(OC)cc(N(CCN2CCN(C(C)=O)CC2)c2ccc3ncc(-c4ccc(N)nc4)nc3c2)c1 [Compound 68]	> 10 µM	> 10 µM	–
<5	0.115 µM	0.055 µM	0.0389 µM	149 °C	CO/N=C(\C)c1cnc2ccc(N(CCO)c3cc(OC)cc(OC)c3)cc2n1 [Compound 29]	> 10 µM	> 10 µM	–
<5	6.17 µM	2.4 µM	1.2 µM	135 °C	COc1cc(OC)cc(N(CC2CC2)c2ccc3ncc(NC(=O)c4ccc(F)cc4)nc3c2)c1 [Compound 28]	> 10 µM	> 10 µM	> 10 µM
5.4	0.0372 µM	0.0195 µM	0.0525 µM	165 °C	CNc1ccc(-c2cnc3ccc(N(CCCNCC(F)(F)F)c4cc(OC)cc(OC)c4)cc3n2)cn1 [Compound 129]	> 10 µM	> 10 µM	–
5.6	0.0251 µM	0.0126 µM	0.00741 µM	155 °C	COc1cc(OC)cc(N(CCCO)c2ccc3ncc(-c4ccnc(F)c4)nc3c2)c1 [Compound 142]	> 10 µM	> 10 µM	–
5.1	0.155 µM	0.141 µM	0.11 µM	227 °C	COc1cc(OC)cc(N(CCO)c2ccc3ncc(C(=O)Nc4cnn(C)c4)nc3c2)c1 [Compound 184]	> 10 µM	> 10 µM	–

Reference: patent publication US10052320B2, “Substituted quinoxalines as FGFR kinase inhibitors” (ASTEX THERAPEUTICS LIMITED, priority 2011, dated 2018)
